In patent US7011826B1, “Control of acidosis” (priority 1999, dated 2006):

Legend:
[1] = system: Clostridium-like vitulinus (LV R1); assay: Virginiamycin sensitivity test (broth growth); type: cell-based; conditions: Basal Medium 10 with glucose (0.5%)
Protocol: (§1) Two isolates of S. bovis from cattle and sheep (orange pigmented and white), five Clostridium-like vitulinus and three isolates of S. ruminantium were incubated in a branch of basal medium 10 with glucose (0.5%) and virginiamycin (VM) at a concentrations of 0, 2, 4, 6 and 8 μg/ml. The virginiamycin solution (100 μg VM/ml) was prepared using Eskalin Wettable Powder (WP), 400 g/kg VM (Pfizer Animal Health, NSW, Australia). The WP was dissolved in distilled water (previously boiled and bubbled with nitrogen until cooled) and filter-sterilised whilst being gassed with nitrogen. This solution was used immediately after preparation. […] The broth-media was inoculated by 0.2 ml of the different fresh viable cultures and 0.1–0.4 ml of VM solution was added to each tube to provide the required dose. A sensitivity test was also performed when VM was added 3 and 6 h after inoculation, using the same concentrations of VM. Tests for sensitivity to VM were conducted using […] of anaerobic incubation at 39° C.

[2] = system: Clostridium-like vitulinus (LV R2); assay: Virginiamycin sensitivity test (broth growth); type: cell-based; conditions: Basal Medium 10 with glucose (0.5%)
Protocol: as §1

[3] = system: Clostridium-like vitulinus (LV R3); assay: Virginiamycin sensitivity test (broth growth); type: cell-based; conditions: Basal Medium 10 with glucose (0.5%)
Protocol: as §1

[4] = system: Clostridium-like vitulinus (LV R4); assay: Virginiamycin sensitivity test (broth growth); type: cell-based; conditions: Basal Medium 10 with glucose (0.5%)
Protocol: as §1

[5] = system: Clostridium-like vitulinus (LV R5); assay: Virginiamycin sensitivity test (broth growth); type: cell-based; conditions: Basal Medium 10 with glucose (0.5%)
Protocol: as §1

[6] = system: S. ruminantium (SR R1, SR R2 and SR R3); assay: Virginiamycin sensitivity test (broth growth); type: cell-based; conditions: Basal Medium 10 with glucose (0.5%)
Protocol: as §1

[7] = system: Clostridium-like isolates; assay: Virginiamycin sensitivity test, VM added 3 and 6 h after inoculation; type: cell-based, Clostridium-like vitulinus
Protocol: as §1

dogs [8] = assay: Virginiamycin dose trial in dogs fed tinned dog food with added raftilose (faecal measurements); type: in vivo; set-up: faecal Dry matter / faecal Total VFA: unit not given here; conditions: for faecal pH: raftilose diet; for faecal Consistency score: 5 = firm, normal faeces and 1 = diarrhoea
Protocol: The main objective of this trial was to investigate various doses of virginiamycin in terms of its effect on faecal consistency and hind gut fermentation.
Design: There were 4 treatment groups consisting of unmedicated control, and virginiamycin at 3 levels: 0.25, 0.5 and 1 mg/kg body weight. Dogs were acclimatised to a dict based on the tinned ‘No Frills’ dog food for approximately 2 weeks prior to a seven-day treatment period in which fructo-oligosaccharide raftilose was added to the diet at a rate of 3.5 g/kg metabolic body weight. There were five dogs per treatment.
Measurements were made of faecal pH, dry matter, consistency and chemical assays were conducted to measure VFA, D-lactic acid and L-lactic acid.

dogs [9] = assay: Faecal characteristics of dog fed dry dog food with virginiamycin; type: in vivo; conditions: one dog, virginiamycin 0.5 mg/kg body weight for 7 days
Protocol: Two dogs were fed a commercial dry dog food for 4 weeks before and then during the experimental period. Virginiamycin (Eskalin 20) was added to the diet of one dog for a period of 7 days prior to faecal sampling to provide 0.5 mg/kg body weight. Samples of faeces were taken for the analysis of pH and lactic acid concentrations at the same time as those taken for isolation of lactic acid producing bacteria.

[10] = VM 0.25, 0.5 and 1 mg/kg body weight

virginiamycin
MIC level [1]: 2 µg/mL | VM level the isolate resisted up to [2]: 4 µg/mL | VM level the isolate resisted up to [3]: 4 µg/mL | VM level the isolate resisted up to [4]: 6 µg/mL | MIC level [5]: 2 µg/mL | highest VM level to which isolates were resistant [6]: 8 µg/mL | MIC compared with VM added immediately after inoculation ([7]; cultures growing 3 h before addition of VM): higher MIC | highest VM level to which isolates were resistant ([7]; cultures grown 6 h before addition of VM, all Clostridium-like isolates): 8 µg/mL | faecal D-lactic acid concentration (dogs [8]; VM 0.25 mg/kg body weight): 0.2 | faecal Dry matter (dogs [8]; VM 0.25 mg/kg body weight): 22.0 | faecal L-lactic acid concentration (dogs [8]; VM 0.25 mg/kg body weight): 2.2 | faecal Total VFA (dogs [8]; VM 0.25 mg/kg body weight): 80.5 | faecal pH (dogs [8]; VM 0.25 mg/kg body weight): 5.2 | faecal Consistency score (dogs [8]; VM 0.25 mg/kg): 3.6 | faecal D-lactic acid concentration (dogs [8]; VM 0.5 mg/kg body weight): 0.4 | faecal Dry matter (dogs [8]; VM 0.5 mg/kg body weight): 22.5 | faecal L-lactic acid concentration (dogs [8]; VM 0.5 mg/kg body weight): 13.8 | faecal Total VFA (dogs [8]; VM 0.5 mg/kg body weight): 93.7 | faecal pH (dogs [8]; VM 0.5 mg/kg body weight): 4.9 | faecal Consistency score (dogs [8]; VM 0.5 mg/kg): 3.7 | faecal D-lactic acid concentration (dogs [8]; VM 1.0 mg/kg body weight): 0.3 | faecal Dry matter (dogs [8]; VM 1.0 mg/kg body weight): 24.2 | faecal L-lactic acid concentration (dogs [8]; VM 1.0 mg/kg body weight): 11.8 | faecal Total VFA (dogs [8]; VM 1.0 mg/kg body weight): 73.5 | faecal pH (dogs [8]; VM 1.0 mg/kg body weight): 4.9 | faecal Consistency score (dogs [8]; VM 1.0 mg/kg): 3.8 | effect on L-lactic (dogs [8]; [10]): little effect | effect on the pH, faecal consistency, dry matter content and VFA concentrations (dogs [8]; [10]): little effect | effect on concentration of d-lactic acid (dogs [8]; all levels of inclusion): reduce the concentration of d-lactic acid | D(−)Lactate in faeces (dogs [9]): 0.45 mmol/L | L(+)Lactate in faeces (dogs [9]): 0.34 mmol/L | faecal pH (dogs [9]): 5.34
